Assay results as given in PubChem BioAssay AID652027 (The Scripps Research Institute Molecular Screening Center, 2013).
Calls of active or inactive are those of the source.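 The calls were made as follows: active = STAT3 reporter signal fold change below 0.5 at 10 µM; inactive = the rest.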

System: U3A cells, IL-6 STAT3 luciferase reporter, luminescence
Experiment: STAT3 signaling inhibitors in reporter cells, late-stage follow-up, counter-screen for STAT5 inhibitor project, U3A cells, luminescence, assay provider run (AID 652027)
Conditions: at 10 µM; active compounds read low

Q: For `CC(C)(C)C(=O)C[n+]1ccc2ccccc2c1`, which fold change is on record?
A: Its fold change is 0.93 (inactive).

Q: Which fold change does the source give for `CN1/C(=C\C(=O)CN2C(=O)c3ccccc3C2=O)C(C)(C)c2ccccc21` here?
A: Its fold change is 0.87 (inactive).

Q: With `CN1/C(=C\C(=O)Cn2nnc(-c3ccccc3)n2)C(C)(C)c2ccccc21` as the compound, how does the fold change read?
A: The fold change was 0.62 (inactive).

Q: `Cc1cc[n+](CC(=O)/C=C2\N(C)c3ccccc3C2(C)C)c(C)c1` was tested. Which fold change did it give?
A: The fold change was 0.61 (inactive).

Q: Which fold change does the source give for `CN1/C(=C\C(=O)Cn2c(=O)c(C#N)cn(C)c2=O)C(C)(C)c2ccccc21` here?
A: The fold change was 1.03 (inactive).

Q: For `COC(=O)C1CCCCN1CC(=O)/C=C1/N(C)c2ccccc2C1(C)C` (stereo not given), which fold change is on record?
A: The fold change was 1.04 (inactive).

Q: For `CN1/C(=C\C(=O)CN2C(=O)c3ccccc3S2(=O)=O)C(C)(C)c2ccccc21`, which fold change is on record?
A: Its fold change is 0.82 (inactive).

Q: For `CCOC(=O)C1CCCN(CC(=O)/C=C2/N(C)c3ccccc3C2(C)C)C1` (stereo not given), which fold change is on record?
A: Its fold change is 1.16 (inactive).

Q: Which fold change does the source give for `CN1/C(=C\C(=O)CN2C(=O)NC(C)(c3ccc(Cl)cc3)C2=O)C(C)(C)c2ccccc21` (stereo not given) here?
A: Its fold change is 0.75 (inactive).

Q: How did the fold change turn out when `O=C(C[n+]1ccc2ccccc2c1)c1ccccc1` was run?
A: Its fold change is 1.04 (inactive).

Q: `O=C(C[n+]1ccc2ccccc2c1)c1cc2ccccc2oc1=O` was tested. Which fold change did it give?
A: Its fold change is 0.84 (inactive).

Q: For `CN1/C(=C\C(=O)CN2CCc3ccccc3C2)C(C)(C)c2ccccc21`, which fold change is on record?
A: Its fold change is 1.28 (inactive).

Q: For `CN1/C(=C\C(=O)CN2C(=O)c3ccc([N+](=O)[O-])cc3C2=O)C(C)(C)c2ccccc21`, which fold change is on record?
A: Its fold change is 0.77 (inactive).

Q: Which fold change does the source give for `COc1ccc2oc(=O)c(C(=O)C[n+]3ccc4ccccc4c3)cc2c1` here?
A: The fold change was 1.15 (inactive).

Q: How did the fold change turn out when `CN1/C(=C\C(=O)CN2CCCC2)C(C)(C)c2ccccc21` was run?
A: The fold change was 0.72 (inactive).

Q: `O=C(C[n+]1ccc2ccccc2c1)c1ccc2ccccc2c1` was tested. Which fold change did it give?
A: Its fold change is 1.34 (inactive).

Q: Which fold change does the source give for `CN1/C(=C\C(=O)C[n+]2ccccc2)C(C)(C)c2ccccc21` here?
A: The fold change was 0.77 (inactive).

Q: With `Cc1cc[n+](CC(=O)/C=C2\N(C)c3ccccc3C2(C)C)cc1` as the compound, how does the fold change read?
A: The fold change was 0.68 (inactive).

Q: How did the fold change turn out when `CN1/C(=C\C(=O)CN2C(=O)c3ccccc3CS2(=O)=O)C(C)(C)c2ccccc21` was run?
A: Its fold change is 0.65 (inactive).

Q: With `CN1/C(=C\C(=O)Cn2cnc3ccc(Cl)cc3c2=O)C(C)(C)c2ccccc21` as the compound, how does the fold change read?
A: The fold change was 0.92 (inactive).

Q: How did the fold change turn out when `O=C(C[n+]1ccc2ccccc2c1)Nc1ccccc1` was run?
A: The fold change was 1.74 (inactive).

Q: Which fold change does the source give for `CN1/C(=C\C(=O)C[n+]2cccc(-c3ccccc3)c2)C(C)(C)c2ccccc21` here?
A: Its fold change is 0.55 (inactive).

Q: Which fold change does the source give for `CN1/C(=C\C(=O)CN2C(=O)C3CC=CCC3C2=O)C(C)(C)c2ccccc21` (stereo not given) here?
A: Its fold change is 0.7 (inactive).

Q: For `CN1/C(=C\C(=O)Cn2cc(C(F)(F)F)ccc2=O)C(C)(C)c2ccccc21`, which fold change is on record?
A: Its fold change is 1.09 (inactive).

Q: For `COc1cccc2cc(C(=O)C[n+]3ccc4ccccc4c3)c(=O)oc12`, which fold change is on record?
A: The fold change was 1.17 (inactive).
